Measurements: ChEMBL document CHEMBL3407424, “Synthesis and evaluation of new α-methylene-γ-lactone carbamates with NO production inhibitory effects in lipopolysaccharide-induced RAW 264.7 macrophages” (Eur J Med Chem, 2015)

Experiments:
[1] = test system: RAW264.7; assay: Antiinflammatory activity against mouse RAW264.7 cells assessed as inhibition of LPS-induced NO production at 25 uM incubated for 30 mins by microplate reader analysis; format: functional; conditions: RAW264.7, 0.5 h
[2] = test system: RAW264.7; assay: Antiinflammatory activity against mouse RAW264.7 cells assessed as inhibition of LPS-induced NO production incubated for 30 mins by microplate reader analysis; format: functional, cell-based; conditions: RAW264.7, 0.5 h
[3] = Cytotoxicity against mouse RAW264.7 cells after 18 hrs by MTT assay; format: cell-based

Row | Structure (SMILES) | IC50 [2] [µM] | inhibition at 25 µM [1] [%] | CC50 at 18 h [3] [µM]
1 | C=C1C(=O)OC[C@H]1CCOC(=O)Nc1ccc(Br)cc1 | 0.35 | > 94 | 8.47
2 | C=C1C(=O)OC[C@H]1CCOC(=O)Nc1ccc(C)c(C)c1 | 1.09 | > 94 | 18.2
3 | C=C1C(=O)OC[C@H]1CCOC(=O)Nc1ccc(C(C)C)cc1 | 0.34 | > 94 | 12.4
4 | C=C1C(=O)OC[C@@H]1CCOC(=O)Nc1ccc(C)c(C)c1 | 1.45 | > 94 | 13.7
5 | C=C1C(=O)OC[C@@H]1CCOC(=O)Nc1ccc(Br)cc1 | 0.72 | > 94 | 19.8
6 | C=C1C(=O)OC[C@@H]1CCOC(=O)Nc1ccc(OC)cc1 | 1.09 | > 94 | 11.9
7 | C=C1C(=O)OC[C@@H]1CCOC(=O)Nc1ccc(CCCC)cc1 | 1.23 | > 94 | 9.95
8 | C=C1C(=O)OC[C@H]1CCOC(=O)Nc1ccc(OC)cc1 | 0.71 | > 94 | 12.4
9 | C=C1C(=O)OC[C@H]1CCOC(=O)Nc1cc(C(F)(F)F)cc(C(F)(F)F)c1 | 0.96 | > 94 | 13.9
10 | C=C1C(=O)OC[C@@H]1CCOC(=O)Nc1cccc(Br)c1 | 0.84 | > 94 | 17.7
11 | C=C1C(=O)OC[C@H]1CCOC(=O)Nc1ccccc1F | 0.35 | > 94 | 17.4
12 | C=C1C(=O)OC[C@@H]1CCOC(=O)Nc1ccc(F)cc1F | 0.7 | > 94 | 14.8
13 | N=C(N)NN [PIMAGEDINE] | 7.29 |  | 
14 | C=C1C(=O)OC[C@@H]1CCOC(=O)Nc1cc(C)cc(C)c1 | 1.24 | > 94 | 13.6
15 | C=C1C(=O)OC[C@@H]1CCOC(=O)Nc1ccccc1F | 0.69 | > 94 | 24.2
16 | C=C1C(=O)OC[C@H]1CCOC(=O)Nc1cc(C)cc(C)c1 | 0.48 | > 94 | 12.7

Further lines, with some results ahead:

Row | IC50 [2] [µM] | Structure (SMILES) | inhibition at 25 µM [1] [%] | CC50 at 18 h [3] [µM]
17 | 1.94 | C=C1C(=O)OC[C@H]1CCOC(=O)Nc1c(C)cccc1C(C)C | 80.7 | 22.2
18 | 0.79 | C=C1C(=O)OC[C@@H]1CCOC(=O)Nc1ccc(I)cc1 | > 94 | 12.5
19 | 0.39 | C=C1C(=O)OC[C@H]1CCOC(=O)Nc1ccc(Cl)cc1 | > 94 | 9.14
20 | 5.98 | C=C1C(=O)OC[C@@H]1CCOC(=O)Nc1c(C)cccc1C(C)C | 39.5 | > 50
21 | 0.84 | C=C1C(=O)OC[C@H]1CCOC(=O)Nc1ccc(CC)cc1 | > 94 | 11.3
22 | 0.49 | C=C1C(=O)OC[C@H]1CCOC(=O)Nc1ccc(I)cc1 | > 94 | 12.8
23 | 1.58 | C=C1C(=O)OC[C@@H]1CCOC(=O)Nc1ccc(C(C)C)cc1 | > 94 | 15.3
24 | 0.43 | C=C1C(=O)OC[C@H]1CCOC(=O)Nc1ccc(C(=O)OCCCC)cc1 | > 94 | 8.94
25 | 0.78 | C=C1C(=O)OC[C@@H]1CCOC(=O)Nc1ccccc1 | > 94 | 22.3
26 | 0.86 | C=C1C(=O)OC[C@@H]1CCOC(=O)Nc1ccc(C(=O)OCCCC)cc1 | > 94 | 12.7
27 | 0.33 | C=C1C(=O)OC[C@H]1CCOC(=O)Nc1ccc(F)cc1F | > 94 | 24.5
28 | 0.39 | C=C1C(=O)OC[C@H]1CCOC(=O)Nc1ccccc1 | > 94 | 14.8
29 | 1.07 | C=C1C(=O)OC[C@@H]1CCOC(=O)Nc1ccc(Cl)cc1 | > 94 | 10.3
30 | 1.26 | C=C1C(=O)OC[C@@H]1CCOC(=O)Nc1ccc(CC)cc1 | > 94 | 7.58
31 | 0.62 | C=C1C(=O)OC[C@H]1CCOC(=O)Nc1ccc(CCCC)cc1 | > 94 | 15.9
32 | 0.8 | C=C1C(=O)OC[C@@H]1CCOC(=O)Nc1cc(C(F)(F)F)cc(C(F)(F)F)c1 | > 94 | 12.4
33 | 0.59 | C=C1C(=O)OC[C@H]1CCOC(=O)Nc1cccc(Br)c1 | > 94 | 21.8
